Broadly, the IC50 is the concentration needed to halve the response being measured.

Structures are written as SMILES.

This assay concerns the target T1, AR (Homo sapiens, UniProt P10275, T878A).
T1 construct: into the androgen-dependent PCa cells (LNCaP); endogenous in cells; host or cells: LNCaP-ARR2PB-eGFP
T1 sequence (P10275 1-920 T878A): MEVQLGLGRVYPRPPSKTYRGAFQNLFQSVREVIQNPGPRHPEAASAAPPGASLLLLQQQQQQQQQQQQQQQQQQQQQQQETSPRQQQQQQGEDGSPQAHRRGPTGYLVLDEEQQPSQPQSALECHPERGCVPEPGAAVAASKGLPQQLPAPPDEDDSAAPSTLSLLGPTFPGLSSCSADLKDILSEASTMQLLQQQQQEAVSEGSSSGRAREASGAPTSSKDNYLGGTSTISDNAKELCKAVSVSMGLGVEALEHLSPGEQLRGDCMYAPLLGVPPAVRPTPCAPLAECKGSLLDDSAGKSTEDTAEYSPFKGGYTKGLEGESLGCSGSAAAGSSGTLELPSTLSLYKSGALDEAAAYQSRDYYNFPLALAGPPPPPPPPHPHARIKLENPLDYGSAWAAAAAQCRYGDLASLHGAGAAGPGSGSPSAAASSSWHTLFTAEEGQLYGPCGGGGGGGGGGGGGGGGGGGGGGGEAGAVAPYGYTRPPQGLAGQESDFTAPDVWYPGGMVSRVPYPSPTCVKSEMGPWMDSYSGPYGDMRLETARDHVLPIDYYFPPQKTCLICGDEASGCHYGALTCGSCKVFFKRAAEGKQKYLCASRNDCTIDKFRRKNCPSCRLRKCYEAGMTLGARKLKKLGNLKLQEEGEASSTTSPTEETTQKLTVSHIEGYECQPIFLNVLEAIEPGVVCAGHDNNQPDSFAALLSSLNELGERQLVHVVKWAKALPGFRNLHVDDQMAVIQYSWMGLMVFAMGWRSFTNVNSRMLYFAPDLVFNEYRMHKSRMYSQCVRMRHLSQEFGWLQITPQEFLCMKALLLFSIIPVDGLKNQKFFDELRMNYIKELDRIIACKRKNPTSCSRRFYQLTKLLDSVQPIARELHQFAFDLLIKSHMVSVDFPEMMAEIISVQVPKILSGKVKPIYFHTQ
Description: AR transcriptional activity, LNCaP-ARR2PB-eGFP reporter cells. The class given is cell-based. Conditions: read-out: IC50 AR transcriptional activities. The text has this:
Detection principles: We conducted a stable transfection of promoter ARR2PB known for its strong AR responsiveness, into the androgen-dependent PCa cells (LNCaP). The expression of enhanced green fluorescent protein (eGFP) is depending on the degree of activation of AR. Therefore, LNCaP-ARR2PB-eGFP cell line could quantitatively determine the AR antagonistic activities of the compounds by evaluating the expression of eGFP.
As for `CC(=O)Cc1nsc(NC(=O)c2cc(-c3cccc(C#N)c3)co2)n1` [Compound G-2, 4-(3-Cyanophenyl)-N-(3-(2-oxopropyl)-1,2,4-thiadiazol-5-yl)furan-2-carboxamide], the IC50 is 35.5 µM. Take `CC(Cc1nsc(NC(=O)c2coc(-c3cccc(OC(F)F)c3)c2)n1)N1CCN(C)CC1` (centres unmarked) [Compound B-19, 5-(3-(Difluoromethoxy)phenyl)-N-(3-(2-(4-methylpiperazin-1-yl)propyl)-1,2,4-thiadiazol-5-yl)furan-3-carboxamide]: the IC50 turned out to be 59.3 µM. With `CN(C)Cc1nsc(NC(=O)c2csc(-c3cccc(C#N)c3)c2)n1` [Compound D-47, 5-(3-Cyanophenyl)-N-(3-((dimethylamino)methyl)-1,2,4-thiadiazol-5-yl)thiophene-3-carboxamide], the IC50 was found to be 25.3 µM. Regarding `Cc1sc(-c2cccc(OC(F)(F)F)c2)cc1C(=O)Nc1nc(CN2CCCC2)ns1` [Compound C-53, 2-Methyl-N-(3-(pyrrolidin-1-ylmethyl)-1,2,4-thiadiazol-5-yl)-5-(3-(trifluoromethoxy)phenyl)thiophene-3-carboxamide], the IC50 worked out at 14.8 µM. On to `CC(=O)Cc1nsc(NC(=O)c2cc(-c3cccc(C#N)c3)c(C)o2)n1` [Compound F-2, 4-(3-Cyanophenyl)-5-methyl-N-(3-(2-oxopropyl)-1,2,4-thiadiazol-5-yl)furan-2-carboxamide], for which the IC50 amounted to 34.3 µM. Regarding `Cc1oc(-c2cccc(OC(F)F)c2)cc1C(=O)Nc1nc(CN2CCCCC2)ns1` [Compound A-129, 5-(3-(Difluoromethoxy)phenyl)-2-methyl-N-(3-(piperidin-1-ylmethyl)-1,2,4-thiadiazol-5-yl)furan-3-carboxamide], the half-maximal inhibitory concentration (IC50) came out at 0.06 µM. As to `Cc1oc(-c2cccc(OC(F)(F)F)c2)cc1C(=O)Nc1nc(CC(C)N(C)C)ns1` (centres unmarked) [Compound A-44, N-(3-(2-(dimethylamino)propyl)-1,2,4-thiadiazol-5-yl)-2-methyl-5-(3-(trifluoromethoxy)phenyl)furan-3-carboxamide], the IC50 was 0.06 µM. As for `CC(=O)Cc1nsc(NC(=O)c2coc(-c3cccc(OC(F)F)c3)c2)n1` [Compound B-5, 5-(3-(Difluoromethoxy)phenyl)-N-(3-(2-oxopropyl)-1,2,4-thiadiazol-5-yl)furan-3-carboxamide], the IC50 is 19.6 µM. With `Cc1oc(-c2cccc(C(F)(F)F)c2)cc1C(=O)Nc1nc(CC(C)N2CCOCC2)ns1` (centres unmarked) [Compound A-42, 2-Methyl-N-(3-(2-morpholinopropyl)-1,2,4-thiadiazol-5-yl)-5-(3-(trifluoromethyl)phenyl) furan-3-carboxamide], the IC50 was 0.36 µM. Turning to `CC(=O)Cc1nsc(NC(=O)c2cc(-c3cccnc3)oc2C)n1` [Compound A-31, 2-Methyl-N-(3-(2-oxopropyl)-1,2,4-thiadiazol-5-yl)-5-(pyridin-3-yl)furan-3-carboxamide], the IC50 is 6.33 µM. In the case of `CC(=O)Cc1nsc(NC(=O)c2coc(-c3cccc(C#N)c3)c2)n1` [Compound B-2, 5-(3-Cyanophenyl)-N-(3-(2-oxopropyl)-1,2,4-thiadiazol-5-yl)furan-3-carboxamide], the IC50 turned out to be 54.9 µM. Take `[2H]c1c(-c2cccc(OC(F)(F)F)c2)oc(C)c1C(=O)Nc1nc(CC(C)=O)ns1` [Compound A-36, 2-Methyl-N-(3-(2-oxopropyl)-1,2,4-thiadiazol-5-yl)-5-(3-(trifluoromethoxy)phenyl)furan-4-d-3-carboxamide]: the IC50 stood at 0.07 µM. As to `Cc1oc(-c2cccc(C(F)(F)F)c2)cc1C(=O)Nc1nc(CC(C)N(C)C)ns1` (centres unmarked) [Compound A-38, N-(3-(2-(dimethylamino)propyl)-1,2,4-thiadiazol-5-yl)-2-methyl-5-(3-(trifluoromethyl)phenyl)furan-3-carboxamide], the IC50 was 0.09 µM. Turning to `CCN(CC)C(C)Cc1nsc(NC(=O)c2coc(-c3cccc(C(F)(F)F)c3)c2)n1` (centres unmarked) [Compound B-7, N-(3-(2-(diethylamino)propyl)-1,2,4-thiadiazol-5-yl)-5-(3-(trifluoromethyl)phenyl)furan-3-carboxamide], the IC50 came out at 15 µM. Take `Cc1oc(-c2cccc(C#N)c2)cc1C(=O)Nc1nc(CC(C)N2CCCC2)ns1` (centres unmarked) [Compound A-46, 5-(3-Cyanophenyl)-2-methyl-N-(3-(2-(pyrrolidin-1-yl)propyl)-1,2,4-thiadiazol-5-yl)furan-3-carboxamide]: the IC50 came out at 0.41 µM. Take `O=C(Nc1nc(CN2CCCCC2)ns1)c1coc(-c2cccc(OC(F)F)c2)c1` [Compound B-56, 5-(3-(Difluoromethoxy)phenyl)-N-(3-(piperidin-1-ylmethyl)-1,2,4-thiadiazol-5-yl)furan-3-carboxamide]: the IC50 turned out to be 28.3 µM. Then `CC(=O)Cc1nsc(NC(=O)c2coc(-c3cccc(OC(F)(F)F)c3)c2)n1` [Compound B-4, N-(3-(2-oxopropyl)-1,2,4-thiadiazol-5-yl)-5-(3-(trifluoromethoxy)phenyl)furan-3-carboxamide], with 32.5 µM. Turning to `O=C(Nc1nc(CCl)ns1)c1csc(-c2cccc(C(F)(F)F)c2)c1` [Compound D-40, N-(3-(chloromethyl)-1,2,4-thiadiazol-5-yl)-5-(3-(trifluoromethyl)phenyl)thiophene-3-carboxamide], the IC50 stood at 21.5 µM. With `[2H]c1c(-c2cccc(C#N)c2)oc(C)c1C(=O)Nc1nc(CC(C)=O)ns1` [Compound A-35, 5-(3-Cyanophenyl)-2-methyl-N-(3-(2-oxopropyl)-1,2,4-thiadiazol-5-yl)furan-4-d-3-carboxamide], the IC50 is 0.72 µM.

For the compound `[2H]c1c(-c2cccc(OC(F)F)c2)oc(C)c1C(=O)Nc1nc(CC(C)=O)ns1` [Compound A-37, 5-(3-(Difluoromethoxy)phenyl)-2-methyl-N-(3-(2-oxopropyl)-1,2,4-thiadiazol-5-yl)furan-4-d-3-carboxamide], the IC50 was determined as 0.03 µM. The figure for `[2H]c1c(-c2cccc(C(F)(F)F)c2)oc(C)c1C(=O)Nc1nc(CC(C)=O)ns1` [Compound A-34, 2-Methyl-N-(3-(2-oxopropyl)-1,2,4-thiadiazol-5-yl)-5-(3-(trifluoromethyl)phenyl)furan-4-d-3-carboxamide] is 0.04 µM.

For the compound `Cc1sc(-c2cccc(OC(F)F)c2)cc1C(=O)Nc1nc(CN2CCCCC2)ns1` [Compound C-56, 5-(3-(Difluoromethoxy)phenyl)-2-methyl-N-(3-(piperidin-1-ylmethyl)-1,2,4-thiadiazol-5-yl)thiophene-3-carboxamide], the IC50 worked out at 12.9 µM. Regarding `CC(O)Cc1nsc(NC(=O)c2cc(-c3cccc(C(F)(F)F)c3)co2)n1` (centres unmarked) [Compound G-11, N-(3-(2-hydroxypropyl)-1,2,4-thiadiazol-5-yl)-4-(3-(trifluoromethyl)phenyl)furan-2-carboxamide], the IC50 is 29.3 µM. `CC(Cc1nsc(NC(=O)c2csc(-c3cccc(OC(F)F)c3)c2)n1)N1CCN(C)CC1` [Compound D-19, 5-(3-(Difluoromethoxy)phenyl)-N-(3-(2-(4-methylpiperazin-1-yl)propyl)-1,2,4-thiadiazol-5-yl)thiophene-3-carboxamide]: the concentration for half-maximal inhibition (IC50) was determined as 19.2 µM. Take `Cc1oc(C(=O)Nc2nc(CN3CCN(C)CC3)ns2)cc1-c1cccc(OC(F)F)c1` [Compound F-28, 4-(3-(Difluoromethoxy)phenyl)-5-methyl-N-(3-((4-methylpiperazin-1-yl)methyl)-1,2,4-thiadiazol-5-yl)furan-2-carboxamide]: the IC50 was 16.4 µM. On to `Cc1sc(-c2cccc(C(F)(F)F)c2)cc1C(=O)Nc1nc(CC(C)(F)F)ns1` [Compound C-35, N-(3-(2,2-difluoropropyl)-1,2,4-thiadiazol-5-yl)-2-methyl-5-(3-(trifluoromethyl)phenyl)thiophene-3-carboxamide], for which the half-inhibitory concentration (IC50) worked out at 29.1 µM. On to `CC(Cc1nsc(NC(=O)c2csc(-c3cccc(C(F)(F)F)c3)c2)n1)N(C)C` [Compound D-6, N-(3-(2-(dimethylamino)propyl)-1,2,4-thiadiazol-5-yl)-5-(3-(trifluoromethyl)phenyl)thiophene-3-carboxamide], for which the IC50 came to 43.8 µM. Take `COc1cccc(-c2cc(C(=O)Nc3nc(CN(C)C)ns3)c(C)o2)c1` [Compound A-118, N-(3-((dimethylamino)methyl)-1,2,4-thiadiazol-5-yl)-5-(3-methoxyphenyl)-2-methylfuran-3-carboxamide]: the IC50 turned out to be 2.23 µM. Then `CC(O)Cc1nsc(NC(=O)c2csc(-c3cccc(C(F)(F)F)c3)c2)n1` [Compound D-20, N-(3-(2-hydroxypropyl)-1,2,4-thiadiazol-5-yl)-5-(3-(trifluoromethyl)phenyl)thiophene-3-carboxamide], with 18.1 µM.

For the origin of these results see US20240376091A1, “THIADIAZOLEAMIDE DERIVATIVES AND THEIR APPLICATIONS” (ZHEJIANG UNIVERSITY, priority 2021, published 2024).
